Measured values: US10434116B2 (priority 2014, dated 2019)
“Also recorded” adds a separate entry of the source. Structures can show the parent of a compound that is named as a salt. Where two headings read alike, the source gives them in different places.

Assays:
MERS-CoV [1] = test: microbe, parasite or virus in culture; format: cell-based, MERS-CoV strain Hu/Jordan-N3/2012; conditions: for EC50: read-out: EC50 against MERS-CoV
MERS-CoV (Jordan) = test: microbe, parasite or virus in culture; format: cell-based; conditions: Middle East respiratory syndrome-related coronavirus, Vero C1008, read-out: EC50 for MERS-CoV (virus production, TCID50)
SARS-CoV [2] = test: microbe, parasite or virus in culture; format: cell-based; conditions: Severe acute respiratory syndrome coronavirus, Vero C1008, read-out: EC50 for SARS-CoV (virus production, TCID50)
SARS-CoV [3] = conditions: mouse, in vivo; cited from earlier work
MERS-CoV [4] = test: microbe, parasite or virus in culture; format: cell-based; conditions: Middle East respiratory syndrome-related coronavirus, Vero C1008, read-out: IC50 value for MERS-CoV (TCID50 assay)
SARS-CoV [5] = test: microbe, parasite or virus in culture; format: cell-based; conditions: Severe acute respiratory syndrome coronavirus, Vero C1008, read-out: IC50 value for SARS-CoV (TCID50 assay)
SARS-CoV [6] = format: cell-based
MERS-S pseudoparticles = format: cell-based, MERS-CoV
MERS-CoV [7] = conditions: cited from earlier work
SARS-CoV [8] = conditions: cited from earlier work
MERS-CoV [9] = format: cell-based
[10] = Middle East respiratory syndrome-related coronavirus, Vero C1008, 48 h, read-out: MERS-CoV IC50
[11] = Middle East respiratory syndrome-related coronavirus, Vero
[12] = Middle East respiratory syndrome-related coronavirus, Vero C1008, 48 h, read-out: IC50 against MERS-CoV

Compound | IC50 (MERS-CoV [1]; [10]) [µM] | toxicity (Vero E6 cells) | also measured
CCN(CCO)CCCC(C)Nc1ccnc2cc(Cl)ccc12 (centres unmarked) [Hydroxychloroquine sulfate] | 8.28 |  | 
CCN(CC)Cc1cc(Nc2ccnc3cc(Cl)ccc23)ccc1O | 6.21 |  | 
COC(=O)C[C@](O)(CCCC(C)(C)O)C(=O)O[C@@H]1C(OC)=C[C@]23CCCN2CCc2cc4c(cc2[C@H]13)OCO4 [Homoharringtonine] | 0.0718 |  | 
CCN(CC)CCCC(C)Nc1ccnc2cc(Cl)ccc12 (centres unmarked) [Chloroquine Phosphate] | 6.28 |  | EC50 (MERS-CoV [1]; [11]): 9.51 µM; EC50 (MERS-CoV [1]): 6.28 µM; EC50 (MERS-CoV (Jordan)): 18.4 µM; EC50 (SARS-CoV [2]): 6.43 µM; efficacy in reducing SARS-CoV virus titers (SARS-CoV [3]): did not show efficacy
Cc1cn(-c2cc(NC(=O)c3ccc(C)c(Nc4nccc(-c5cccnc5)n4)c3)cc(C(F)(F)F)c2)cn1 [Nilotinib] | 5.47 | low toxicity | activity against MERS-CoV (in words) (MERS-CoV [1]): does not significantly inhibit MERS-CoV; maximum inhibition of MERS-CoV (MERS-CoV [1]): 39%; IC50 (MERS-CoV [4]): 9.53 µM; IC50 (SARS-CoV [5]): 2.3 µM; inhibition of virus growth, SARS-CoV (SARS-CoV [6]): significant inhibition of virus growth; also recorded: little inhibition of either virus
CC[C@H]1CN2CCc3cc(OC)c(OC)cc3[C@@H]2C[C@@H]1C[C@H]1NCCc2cc(OC)c(OC)cc21 | 0.014 |  | 
CC(C)N1CCN(c2ccc(OCC3COC(Cn4cncn4)(c4ccc(Cl)cc4Cl)O3)cc2)CC1 (centres unmarked) [Terconazole] | 12.2 |  | 
OC(c1cc(C(F)(F)F)nc2c(C(F)(F)F)cccc12)C1CCCCN1 (centres unmarked) [Mefloquine] | 7.42 |  | 
CCSc1ccc2c(c1)N(CCCN1CCN(C)CC1)c1ccccc1S2 [Thiethylperazine maleate] | 7.87 |  | 
O=C1NCN(c2ccccc2)C12CCN(CCCC(c1ccc(F)cc1)c1ccc(F)cc1)CC2 [Fluspirilene] | 7.48 |  | 
Nc1ccn([C@@H]2O[C@H](CO)[C@@H](O)C2(F)F)c(=O)n1 [Gemcitabine hydrochloride] | 1.22 | low toxicity | EC50 (MERS-CoV [1]; [11]): 1.2 µM; CCF2 signal (fluorescence) (MERS-S pseudoparticles): 95 % of control
CC(CN1c2ccccc2Sc2ccccc21)N(C)C (centres unmarked) [Promethazine hydrochloride] | 11.8 |  | 
CN(C)CCCN1c2ccccc2Sc2ccc(Cl)cc21 [Chlorpromazine hydrochloride] | 9.51 | low toxicity | IC50 (MERS-CoV [1]; [12]): 5.76 to 12.9 µM; EC50 (MERS-CoV (Jordan)): 19.4 µM; EC50 (SARS-CoV [2]): 4.86 µM
COc1ccc(C[C@H]2NC[C@H](O)[C@H]2OC(C)=O)cc1 [Anisomycin] |  |  | IC50 (MERS-CoV [1]; read-out: MERS-CoV IC50): 0.003 µM
CN(C)CCCN1c2ccccc2Sc2ccc(C(F)(F)F)cc21 [Triflupromazine hydrochloride] | 5.76 | low toxicity | IC50 (MERS-CoV [1]; [12]): 5.76 to 12.9 µM; IC50 (MERS-CoV [1]; read-out: IC50 against MERS-CoV, hydrochloride): 5.76 µM
Cc1nc(Nc2ncc(C(=O)Nc3c(C)cccc3Cl)s2)cc(N2CCN(CCO)CC2)n1 [dasatinib] |  | low toxicity | 
CN(C)CCOC(C)(c1ccccc1)c1ccc(Cl)cc1 (centres unmarked) [Chlorphenoxamine hydrochloride] | 12.6 |  | 
COC(=O)Nc1nc2ccc(C(=O)c3cccs3)cc2[nH]1 [nocodazole] |  |  | activity against MERS-CoV (in words) (MERS-CoV [1]): high activity
COc1c(C)c2c(c(O)c1C/C=C(\C)CCC(=O)O)C(=O)OC2 [mycophenolic acid (MPA), mycophenolic acid] |  |  | effect against MERS-CoV infection in vitro (MERS-CoV [7]): highly effective; activity against SARS-CoV infection (SARS-CoV [8]): little activity
CN(C)CCOc1ccc(/C(=C(/CCCl)c2ccccc2)c2ccccc2)cc1 [Toremifene citrate] | 12.9 | low toxicity | EC50 (MERS-CoV [1]; [11]): 12.9 µM
CCN(CC)CCOc1ccc(C(O)(Cc2ccc(Cl)cc2)c2ccc(C)cc2)cc1 (centres unmarked) [Triparanol] | 5.28 |  | 
CN1CCN(CC/C=C2/c3ccccc3Sc3ccc(S(=O)(=O)N(C)C)cc32)CC1 [Thiothixene] | 9.3 |  | 
Cc1ccc(NC(=O)c2ccc(CN3CCN(C)CC3)cc2)cc1Nc1nccc(-c2cccnc2)n1 [Imatinib mesylate] |  | low toxicity | inhibition of virus growth, MERS-CoV (MERS-CoV [9]): significant inhibition of virus growth; also recorded: little inhibition of either virus; inhibition of virus growth, SARS-CoV (SARS-CoV [6]): significant inhibition of virus growth; also recorded: little inhibition of either virus; CCF2 signal (fluorescence) (MERS-S pseudoparticles): 7.8 % of control
